Laboratory results as given in US9593097B2, “Axl inhibitors” (Pfizer Inc., priority 2014, dated 2017).

Target: Axl phosphorylation in 293MSR-AxlWT6 cells (Homo sapiens (Human), UniProt P30530)
Assay: Cellular Axl phosphorylation ELISA assay (Gas6-stimulated 293MSR-AxlWT6 cells)
Assay type: cell-based
Details: Table 4A, read-out: CELL AXL IC50
Method: Cellular Axl Phosphorylation ELISA Assay
After 6-7 hrs in tissue culture incubator at 37° C. 5% CO2, medium was removed, serum-free medium was added (with 0.04% bovine serum albumin) and plates were returned to incubator where they remained overnight. […] Media was then removed and lysis buffer was added to wells and shaken at 4° C. for 30 min to generate protein lysates. Subsequently, phosphorylation of Axl was assessed by a sandwich ELISA method using a DuoSet IC Human Phospho-Axl ELISA assay kit (R&D System), an immobilized mouse anti-human Axl antibody and an anti-phospho-tyrosine-HRP antibody as a detection antibody. Antibody-coated plates were (a) incubated in presence of protein lysates at room temperature for 2 hrs, (b) washed seven times in 0.1% Tween 20 in PBS, (c) incubated with secondary antibody (a horseradish peroxidase-conjugated […]) for 2 hrs, (d) washed seven times again, (e) TMB peroxidase substrate (Bio-Rad) was added to initiate a colorimetric reaction and stopped by adding 0.2 N H2SO4, and (f) measured at OD 450 nm using a spectrophotometer. IC50 values were calculated by concentration-response curve fitting using a four-parameter analytic method and reported in μM.
For Table 4B, IC50 values were calculated by concentration-response curve fitting using a four-parameter analytic method and reported in nM.

Chain of Axl phosphorylation in 293MSR-AxlWT6 cells (P30530 26-894): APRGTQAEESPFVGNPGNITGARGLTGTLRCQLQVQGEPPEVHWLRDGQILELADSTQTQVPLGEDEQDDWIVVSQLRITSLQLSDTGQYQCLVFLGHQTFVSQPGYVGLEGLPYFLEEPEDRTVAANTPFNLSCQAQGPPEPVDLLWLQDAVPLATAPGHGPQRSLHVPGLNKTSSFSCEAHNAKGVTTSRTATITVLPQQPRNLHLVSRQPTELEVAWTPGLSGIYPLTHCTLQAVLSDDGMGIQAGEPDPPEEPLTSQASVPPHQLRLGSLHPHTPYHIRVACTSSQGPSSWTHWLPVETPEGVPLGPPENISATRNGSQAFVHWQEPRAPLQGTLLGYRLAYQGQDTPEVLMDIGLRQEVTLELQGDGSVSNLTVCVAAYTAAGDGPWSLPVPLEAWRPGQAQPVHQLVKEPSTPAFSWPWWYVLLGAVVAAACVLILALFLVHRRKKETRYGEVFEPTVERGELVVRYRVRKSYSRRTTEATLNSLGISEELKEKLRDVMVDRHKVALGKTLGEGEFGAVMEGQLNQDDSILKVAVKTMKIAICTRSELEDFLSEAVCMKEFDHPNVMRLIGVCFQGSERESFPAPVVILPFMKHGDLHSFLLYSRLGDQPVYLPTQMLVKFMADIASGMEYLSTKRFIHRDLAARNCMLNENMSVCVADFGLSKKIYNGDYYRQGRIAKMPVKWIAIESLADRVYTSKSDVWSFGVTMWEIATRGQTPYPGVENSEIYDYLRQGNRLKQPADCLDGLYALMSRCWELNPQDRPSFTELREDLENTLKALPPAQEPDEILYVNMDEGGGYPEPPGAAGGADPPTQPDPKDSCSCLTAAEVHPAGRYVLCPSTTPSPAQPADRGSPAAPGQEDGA

IC50 [nM] | Molecule
120 | C[C@H](CO)NC(=O)c1cc(N2CCC(c3n[nH]c4ncccc34)CC2)nc(OC[C@H]2CCOC2)n1 [Example 383, N-[(2R)-1-hydroxypropan-2-yl]-6-[4-(1H-pyrazolo[3,4-b]pyridin-3-yl)piperidin-1-yl]-2-[(3S)-tetrahydrofuran-3-ylmethoxy]pyrimidine-4-carboxamide]
23.8 | COC[C@@H](C)Oc1nc(C(=O)NCC2CC2)nc(N2CCC(c3ccc(N)c(C(N)=O)n3)CC2)n1 [Example 58, 4-[4-(5-amino-6-carbamoylpyridin-2-yl)piperidin-1-yl]-N-(cyclo-propylmethyl)-6-{[(2R)-1-methoxypropan-2-yl]oxy}-1,3,5-triazine-2-carboxamide]
0.72 | COc1ccnc2[nH]cc(C3CCN(c4nc(OC[C@H]5C[C@H]5C#N)nc(C(=O)NCC(F)(F)F)n4)CC3)c12 [Example 380, 4-{[(1S,2R)-2-cyanocyclopropyl]methoxy}-6-[4-(4-methoxy-1H-pyrrolo[2,3-b]pyridin-3-yl)piperidin-1-yl]-N-(2,2,2-trifluoroethyl)-1,3,5-triazine-2-carboxamide]
56.4 | N#C[C@@H]1C[C@@H]1COc1nc(C(=O)NC23CC(C2)C3)cc(N2CC[C@H](c3n[nH]c4ncccc34)[C@H](F)C2)n1 (single isomer, unassigned) [Example 79]
64.9 | CN(C)CCOc1ccc(C(N)=O)nc1C1CCN(c2cc(C(=O)NC3CCC3)nc(OC[C@H]3C[C@H]3C#N)n2)CC1 [Example 18, 6-(4-{6-carbamoyl-3-[2-(dimethylamino)ethoxy]pyridin-2-yl}piperidin-1-yl)-2-{[(1S,2R)-2-cyanocyclopropyl]methoxy}-N-cyclobutyl-pyrimidine-4-carboxamide]
455 | N#C[C@@H]1C[C@@H]1COc1nc(C(=O)NC(CCO)C(F)(F)F)cc(N2CCC(COc3cncnc3N)CC2)n1 (stereo partly drawn) [Example 63, 6-(4-{[(4-aminopyrimidin-5-yl)oxy]methyl}piperidin-1-yl)-2-{[(1S,2R)-2-cyanocyclopropyl]methoxy}-N-(1,1,1-trifluoro-4-hydroxybutan-2-yl)pyrimidine-4-carboxamide]
23.4 | N#C[C@@H]1C[C@@H]1COc1nc(C(=O)NCC(F)(F)F)cc(N2CCC(COc3cncnc3N)CC2)n1 [Example 33, 6-(4-{[(4-aminopyrimidin-5-yl)oxy]methyl}piperidin-1-yl)-2-{[(1S,2R)-2-cyanocyclopropyl]methoxy}-N-(2,2,2-trifluoroethyl) pyrimidine-4-carboxamide]
87.4 | COC[C@@H](C)Oc1nc(C(=O)N[C@H](C)CN(C)C)cc(N2CCC(c3ccc(N)c(C(N)=O)n3)CC2)n1 (single isomer, unassigned) [Example 36]
8.42 | N#C[C@@H]1C[C@@H]1COc1nc(C(=O)NC23CC(C2)C3)cc(N2CC[C@@H](c3n[nH]c4ncccc34)[C@@H](F)C2)n1 (single isomer, unassigned) [Example 78]
42.8 | CS(=O)(=O)COc1cnc2[nH]nc(C3CCN(c4cc(C(=O)NC56CC(C5)C6)nc(OC[C@H]5C[C@H]5C#N)n4)CC3)c2c1 [Example 77, N-(bicyclo[1.1.1]pent-1-yl)-2-{[(1S,2R)-2-cyanocyclopropyl]methoxy}-6-(4-{5-[(methylsulfonyl)methoxy]-1H-pyrazolo[3,4-b]pyridin-3-yl}piperidin-1-yl)pyrimidine-4-carboxamide]
8.36 | C[C@@H](NC(=O)c1cc(N2CCC(c3ccc(N)c(C(N)=O)n3)CC2)nc(OCC2CC2(F)F)n1)C(C)(C)O (single isomer, unassigned) [Example 15]
16.7 | CCNC(=O)c1cc(N2CCC(COc3cc(-c4cnn(CCO)c4)cnc3N)CC2)nc(O[C@H](C)COC)n1 [Example 86, 6-{4-[({2-amino-5-[1-(2-hydroxyethyl)-1H-pyrazol-4-yl]pyridin-3-yl}oxy)methyl]piperidin-1-yl}-N-ethyl-2-{[(2R)-1-methoxypropan-2-yl]oxy} pyrimidine-4-carboxamide]
24.7 | 6-{4-[(3-amino- 1H-indazol-4- yl)oxy]piperidin-1- yl}-N- (bicyclo[1.1.1]pent- 1-yl)-2-[(1- cyanocyclopropyl) methoxy] pyrimidine- 4-carboxamide [Example 19]
2.74 | N#CC1(COc2nc(C(=O)NC34CC(C3)C4)nc(N3CCC(c4n[nH]c5ncccc45)CC3)n2)CC1 [Example 59, N-(bicyclo[1.1.1]pent-1-yl)-4-[(1-cyanocyclopropyl)methoxy]-6-[4-(1H-pyrazolo[3,4-b]pyridin-3-yl)piperidin-1-yl]-1,3,5-triazine-2-carboxamide]
285 | CCNC(=O)c1nc(OCC2(C#N)CC2)nc(N2CCC(c3n[nH]c4ncccc34)CC2)n1 [Example 133, 4-(4-(1H-pyrazolo[3,4-b]pyridin-3-yl)piperidin-1-yl)-6-((1-cyanocyclopropyl)methoxy)-N-ethyl-1,3,5-triazine-2-carboxamide]
242 | CN(C)CCOc1ccc(C(N)=O)nc1C1CCN(c2cc(C(=O)NC3CCC3)nc(OC[C@@H]3C[C@@H]3C#N)n2)CC1 [Example 37, 6-(4-{6-carbamoyl-3-[2-(dimethylamino)ethoxy]pyridin-2-yl}piperidin-1-yl)-2-{[(1R,2S)-2-cyanocyclopropyl]methoxy}-N-cyclobutyl-pyrimidine-4-carboxamide]
40.8 | C[C@@H](O)COc1nc(C(=O)NC23CC(C2)C3)cc(N2CCC(c3n[nH]c4ncccc34)CC2)n1 [Example 70, N-(bicyclo[1.1.1]pent-1-yl)-2-[(2R)-2-hydroxypropoxy]-6-[4-(1H-pyrazolo[3,4-b]pyridin-3-yl)piperidin-1-yl]pyrimidine-4-carboxamide]
15.5 | C[C@H](CO)NC(=O)c1cc(N2CCC(c3c[nH]c4ncccc34)CC2)nc(OC[C@H]2CCO2)n1 [Example 50, N-[(2R)-1-hydroxypropan-2-yl]-2-[(2R)-oxetan-2-ylmethoxy]-6-[4-(1H-pyrrolo[2,3-b]pyridin-3-yl)piperidin-1-yl]pyrimidine-4-carboxamide]
12.6 | N#CC1(COc2nc(C(=O)NCC(F)(F)F)cc(N3CCC(COc4cncnc4N)CC3)n2)CC1 [Example 31, 6-(4-{[(4-aminopyrimidin-5-yl)oxy]methyl}piperidin-1-yl)-2-[(1-cyanocyclopropyl)methoxy]-N-(2,2,2-trifluoroethyl) pyrimidine-4-carboxamide]
246 | CCOc1nc(C(=O)NC2CCC2)cc(N2CCC(c3nc(C(N)=O)ccc3OCCN(C)C)CC2)n1 [Example 2, 6-(4-{6-carbamoyl-3-[2-(dimethylamino)ethoxy]pyridin-2-yl}piperidin-1-yl)-N-cyclobutyl-2-ethoxypyrimidine-4-carboxamide]
5.77 | COC[C@@H](C)Oc1nc(C(=O)NC2CCC2)nc(N2CCC(c3ccc(N)c(C(N)=O)n3)CC2)n1 [Example 40, 4-[4-(5-amino-6-carbamoylpyridin-2-yl)piperidin-1-yl]-N-cyclobutyl-6-{[(2R)-1-methoxypropan-2-yl]oxy}-1,3,5-triazine-2-carboxamide]
235 | CCNC(=O)c1cc(N2CCC(COc3cc(-c4cnn(C)c4)cnc3N)CC2)nc(OCC(C)O)n1 (stereo not shown) [Example 45, 6-[4-({[2-amino-5-(1-methyl-1H-pyrazol-4-yl)pyridin-3-yl]oxy}methyl)piperidin-1-yl]-N-ethyl-2-(2-hydroxypropoxy) pyrimidine-4-carboxamide]
1.78 | CCNC(=O)c1cc(N2CCC(COc3cc(-c4cnn(C)c4)cnc3N)CC2)nc(OC[C@H]2C[C@H]2C#N)n1 [Example 25, 6-[4-({[2-amino-5-(1-methyl-1H-pyrazol-4-yl)pyridin-3-yl]oxy}methyl)piperidin-1-yl]-2-{[(1S,2R)-2-cyanocyclopropyl]methoxy}-N-ethylpyrimidine-4-carboxamide]
64.9 | N#CC1(COc2nc(C(=O)NCC(F)(F)F)nc(N3CCC(COc4cccnc4N)CC3)n2)CC1 [Example 91, 4-(4-{[(2-aminopyridin-3-yl)oxy]methyl}piperidin-1-yl)-6-[(1-cyanocyclopropyl)methoxy]-N-(2,2,2-trifluoroethyl)-1,3,5-triazine-2-carboxamide]
12.6 | C[C@@H](NC(=O)c1cc(N2CCC(c3ccc(N)c(C(N)=O)n3)CC2)nc(OCC2CC2(F)F)n1)C(C)(C)O (single isomer, unassigned) [Example 16]
59 | C[C@H](NC(=O)c1cc(N2CCC(c3cccc(C(N)=O)n3)CC2)nc(OCC2(C#N)CC2)n1)C(F)(F)F [Example 13, 6-[4-(6-carbamoylpyridin-2-yl)piperidin-1-yl]-2-[(1-cyanocyclopropyl)methoxy]-N-[(2S)-1,1,1-trifluoropropan-2-yl]pyrimidine-4-carboxamide]
134 | N#C[C@@H]1C[C@@H]1COc1nc(C(=O)NCC(F)(F)F)nc(N2CCC(c3ccc(N)c(C(N)=O)n3)CC2)n1 [Example 89, 4-[4-(5-amino-6-carbamoylpyridin-2-yl)piperidin-1-yl]-6-{[(1S,2R)-2-cyanocyclopropyl]methoxy}-N-(2,2,2-trifluoroethyl)-1,3,5-triazine-2-carboxamide]
0.4 | COc1ccnc2[nH]cc(C3CCN(c4cc(C(=O)N[C@H](C)CO)nc(OC[C@H]5C[C@H]5C#N)n4)CC3)c12 [Example 377, 2-{[(1S,2R)-2-cyanocyclopropyl]methoxy}-N-[(2R)-1-hydroxypropan-2-yl]-6-[4-(4-methoxy-1H-pyrrolo[2,3-b]pyridin-3-yl)piperidin-1-yl]pyrimidine-4-carboxamide]
